Legend:
[1] = Desmopressin flux through skin (microprojection solid film system and gel pack), from urinary excretion of tritium; assay type: in vivo, HGPs; conditions: 5 mg tritiated desmopressin solid film, 2% HEC gel pack; 1 h and 24 h; FIG. 20
Procedure: An experiment was conducted to test the concept of the hydratable system using the peptide desmopressin. A system similar to that presented in Example 2 was provided.
The system included a 2 cm^2 solid film containing 5 mg tritiated desmopressin. The thin film was prepared by casting a 20 mil thick aqueous solution comprised of 10 wt. % HPMC 2910 USP and 20 wt. % glycerol. The film was dried and punched into 2 cm^2 discs. Each disc was imbibed with a 20 wt. % ^3H desmopressin solution and subsequently dried. The solid film was subsequently disposed proximate the top surface of the microprojection member. The gel pack or gel reservoir contained 0.120 mL of 2% HEC (NATROSOL® 250 HHX) in water.
(§1) Following application of the microprojection solid film system in HGPs, the gel pack was placed on top of the microprojection member, as illustrated in FIG. 12. At 1 h and 24 h after application, three (3) systems from each group of HGPs were removed and the residual drug washed form the skin. The amount of the drug penetrated during these times intervals was determined by measuring urinary excretion of tritium (previous studies had shown that in HGPs, 71% of ^3H desmopressin injected intravenously is excreted in urine).

[2] = Urinary excretion of 3H desmopressin injected intravenously (previous studies); assay type: in vivo; conditions: hairless, urine, iv, total radioactivity, injected intravenously in HGPs, read-out: fraction excreted in urine
Procedure: as §1

Question: For `NC(=O)CC[C@@H]1NC(=O)[C@H](Cc2ccccc2)NC(=O)[C@H](Cc2ccc(O)cc2)NC(=O)CCSSC[C@@H](C(=O)N2CCC[C@H]2C(=O)N[C@H](CCCN=C(N)N)C(=O)NCC(N)=O)NC(=O)[C@H](CC(N)=O)NC1=O` [desmopressin], which “flux through the skin, time dependence” value [1] is on record?
Answer: time dependant flux

Question: And the dose excreted [2]?
Answer: 71%

Reference: US20050089554A1, “Apparatus and method for enhancing transdermal drug delivery” (priority 2003, published 2005)
